Entries after “also recorded” stand apart in the source; their conditions may differ.
Assays:
[1] = tested on: placenta cytotrophoblast cell line (HTR); assay: Secretion of VEGF, sFLT-1 and PlGF by HTR cytotrophoblast cell line under hypoxia; type: cell-based
Experimental: (§1) We have shown that 5 μM, 10 μM and 30 μM of 2-ME can reduce the secreted levels of VEGF up to 75% in a dose dependent manner in a placenta cytotrophoblast cell line (HTR) under hypoxia. […] Similarly, 5 μM, 10 μM and 30 μM of 2-ME can reduce the secreted sFLT-1 levels by up to 50% or more in a dose dependent manner in the same cell lines under hypoxia (see FIGS. 1-3).

BeWo cells = assay: Secretion of VEGF, sFLT-1 and PlGF by BeWo cytotrophoblast cell line under hypoxia; type: cell-based; conditions: 5 μM, 10 μM and 30 μM 2-ME
[2] = tested on: HTR-8/SV neo trophoblast cells; assay: Blot of protein expression in trophoblast cell lysates under hypoxic conditions; type: cell-based; conditions: 5 μM, 10 μM and 30 μM 2-ME
Experimental: FIG. 5 is a blot showing that 2-methoxyestradiol treatment of HTR-8/SV neo trophoblast cells downregulations HIF-1α, VEGF165, Flt-1, and sFlt-1 expression in cell lysates under hypoxic conditions.
as §1

sFLT-1 and VEGF = assay: Blood levels of sFLT-1 and VEGF in normal mice treated with 2-ME; type: in vivo; conditions: twice daily 30 μM 2-ME, blood samples
Experimental: Normal mice were treated with 2-ME twice daily with 30 μM of 2-ME. Blood samples were then obtained and assayed for the level of sFLT-1 and VEGF. […] The 30 μM concentration represents approximately the normal physiological level of 2-ME that is found in the blood of pregnant women in the late second trimester or early third trimester through the end of pregnancy. At the end of a pregnancy, levels of 2-ME in non-preeclamptic subjects drops back to non pregnant levels, which are approximately 1-5 μM.

[3] = tested on: cytotrophoblasts from the placenta; assay: Expression of HIF-1α and angiogenic factors in cytotrophoblasts from the placenta (summary statement); type: cell-based
[4] = tested on: tumor and non-tumor cell lines; conditions: wide variety of tumor and non-tumor cell lines; cited from earlier work
[5] = administered orally; cited from earlier work
HIF-1 = conditions: cited from earlier work
[6] = 5 μM, 10 μM and 30 μM 2-ME, dose dependent, HTR cell line, hypoxia

COc1cc2c(cc1O)CC[C@@H]1[C@@H]2CC[C@]2(C)[C@@H](O)CC[C@@H]12 [2-ME, 2-methoxyestradiol]
PlGF secretion levels ([1]; 5 μM, 10 μM and 30 μM 2-ME, HTR cell line, hypoxia): reduce PlGF secretion levels in a dose dependent manner | PlGF secretion levels ([1]; 5 μM, 10 μM and 30 μM 2-ME, HTR cell line, hypoxia, listed as 2-methoxyestradiol): reduction of PlGF secretion | reduction of secreted levels of VEGF [1, 6]: up to 75% | reduction of secreted sFLT-1 levels [1, 6]: ≥ 50% | sFLT-1 production / secretion ([1]; HTR / HTR-8/SV neo cells): reduction of sFLT-1 production | secretion of VEGF ([1]; HTR / HTR-8/SV neo cells): reduces secretion of VEGF; also recorded: reduction | PlGF secretion levels (BeWo cells): reduce PlGF secretion levels in a dose dependent manner | reduction of secreted sFLT-1 levels (BeWo cells; dose dependent): ≥ 50% | expression level of Flt-1 in cell lysates [2]: downregulated | expression level of HIF-1α in cell lysates [2]: downregulated | expression level of VEGF165 in cell lysates [2]: downregulated | expression level of sFlt-1 in cell lysates [2]: downregulated | expression level of Flt-1 in cell lysates ([2]; listed as 2-methoxyestradiol): downregulations | expression level of HIF-1α in cell lysates ([2]; listed as 2-methoxyestradiol): downregulations | expression level of VEGF165 in cell lysates ([2]; listed as 2-methoxyestradiol): downregulations | expression level of sFlt-1 in cell lysates ([2]; listed as 2-methoxyestradiol): downregulations | bound VEGF (sFLT-1 and VEGF): decrease in bound VEGF | reduction in sFLT-1 expression (sFLT-1 and VEGF): 50% | expression of HIF-1α [3]: decreases | expression of VEGF, PlGF, VEGF Receptor 1 (VEGFR1) and sFLT-1 [3]: dramatic decrease | anti-proliferative activity [4]: potent | apoptosis [4]: induces apoptosis | antitumor and antiangiogenic activity [5]: exhibits antitumor and antiangiogenic activity | toxicity [5]: little or no toxicity | HIF-1 induced transcriptional activation of VEGF expression (HIF-1): inhibits | HIF-1 level (HIF-1; posttranscriptional level): downregulate

— patent publication US8273383B2, “Methods and compositions for treatment of preeclampsia” (Children's Medical Center Corporation, priority 2004, dated 2012)
